Assay results reported in PubChem BioAssay AID1845208 (Molecular Pharmacology Branch, DTP, NCI, 2023).
Values joined by “and” are separate entries in the source; they are usually repeats but may differ in a detail not shown here. Equal values may be shown once. Active and inactive are the calls of the source. The calls were made as follows: active = viability on the fitted dose curve at most 10% of control; inactive = the rest.

System: NCI-H196 SCLC complex tumor spheroid viability
Assay: Anticancer human tumor NCI-H196 cell line growth inhibition;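 as to IC50: spheroids exposed to compounds for 7 days before readout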;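 as to viability, T/C: spheroids exposed to compounds for 7 days before readout; 100% = DMSO vehicle control wells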
Conditions: for viability, T/C: stronger effect = lower value
In short: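 Complex spheroids of malignant cells with endothelial cells and mesenchymal stem cells; agents alone or combined, from near clinical Cmax (or 10 microM if unknown) down in half-log steps, 0.25% DMSO final.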

[1] = curve of first compound, second compound 1 µM
[2] = curve of first compound, second compound 3.16 µM
[3] = curve of first compound, second compound 10 µM
[4] = curve of first compound, second compound 31.6 µM
[5] = curve of first compound, second compound 100 µM

Structure (SMILES): CNCc1ccc(-c2cc(-c3nc(-c4ccc(S(=O)(=O)C(C)C)cc4)cnc3N)on2)cc1 + Cn1nnc2c(C(N)=O)ncn2c1=O
- IC50 [1]: > 3 µM
- IC50 [2]: > 3 µM
- IC50 [3]: > 3 µM
- IC50 [4]: > 3 µM
- IC50 [5]: > 3 µM
- viability, T/C (second compound 1 µM, first compound 0.00949 µM): 100%
- viability, T/C (second compound 1 µM, first compound 0.03 µM): 92.1%
- viability, T/C (second compound 1 µM, first compound 0.0949 µM): 106%
- viability, T/C (second compound 1 µM, first compound 0.3 µM): 99.5%
- viability, T/C (second compound 1 µM, first compound 0.949 µM): 84.1%
- viability, T/C (second compound 1 µM, first compound 3 µM): 85.2%
- viability, T/C (second compound 3.16 µM, first compound 0.00949 µM): 98.7%
- viability, T/C (second compound 3.16 µM, first compound 0.03 µM): 97.4%
- viability, T/C (second compound 3.16 µM, first compound 0.0949 µM): 104%
- viability, T/C (second compound 3.16 µM, first compound 0.3 µM): 105%
- viability, T/C (second compound 3.16 µM, first compound 0.949 µM): 88.1%
- viability, T/C (second compound 3.16 µM, first compound 3 µM): 88.2%
- viability, T/C (second compound 10 µM, first compound 0.00949 µM): 100%
- viability, T/C (second compound 10 µM, first compound 0.03 µM): 96.3%
- viability, T/C (second compound 10 µM, first compound 0.0949 µM): 105%
- viability, T/C (second compound 10 µM, first compound 0.3 µM): 99.5%
- viability, T/C (second compound 10 µM, first compound 0.949 µM): 95.3%
- viability, T/C (second compound 10 µM, first compound 3 µM): 84.4%
- viability, T/C (second compound 31.6 µM, first compound 0.00949 µM): 102%
- viability, T/C (second compound 31.6 µM, first compound 0.03 µM): 113%
- viability, T/C (second compound 31.6 µM, first compound 0.0949 µM): 106%
- viability, T/C (second compound 31.6 µM, first compound 0.3 µM): 105%
- viability, T/C (second compound 31.6 µM, first compound 0.949 µM): 91.4%
- viability, T/C (second compound 31.6 µM, first compound 3 µM): 82.9%
- viability, T/C (second compound 100 µM, first compound 0.00949 µM): 107%
- viability, T/C (second compound 100 µM, first compound 0.03 µM): 109%
- viability, T/C (second compound 100 µM, first compound 0.0949 µM): 112%
- viability, T/C (second compound 100 µM, first compound 0.3 µM): 99.6%
- viability, T/C (second compound 100 µM, first compound 0.949 µM): 88.3%
- viability, T/C (second compound 100 µM, first compound 3 µM): 84.3%

Structure (SMILES): Cc1cc(C)c(CNC(=O)c2cc(-c3ccc(CN4CCOCC4)cc3)cc3c2cnn3C2CCCC2)c(=O)[nH]1 + Cn1nnc2c(C(N)=O)ncn2c1=O
- IC50 [1]: > 10 µM
- IC50 [2]: > 10 µM
- IC50 [3]: > 10 µM
- IC50 [4]: > 10 µM
- IC50 [5]: > 10 µM
- viability, T/C (second compound 1 µM, first compound 0.0316 µM): 91%
- viability, T/C (second compound 1 µM, first compound 0.1 µM): 102%
- viability, T/C (second compound 1 µM, first compound 0.316 µM): 92.1%
- viability, T/C (second compound 1 µM, first compound 1 µM): 92.8%
- viability, T/C (second compound 1 µM, first compound 3.16 µM): 90.6%
- viability, T/C (second compound 1 µM, first compound 10 µM): 105%
- viability, T/C (second compound 3.16 µM, first compound 0.0316 µM): 93.6%
- viability, T/C (second compound 3.16 µM, first compound 0.1 µM): 94.5%
- viability, T/C (second compound 3.16 µM, first compound 0.316 µM): 101%
- viability, T/C (second compound 3.16 µM, first compound 1 µM): 104%
- viability, T/C (second compound 3.16 µM, first compound 3.16 µM): 100%
- viability, T/C (second compound 3.16 µM, first compound 10 µM): 101%
- viability, T/C (second compound 10 µM, first compound 0.0316 µM): 99.3%
- viability, T/C (second compound 10 µM, first compound 0.1 µM): 97.8%
- viability, T/C (second compound 10 µM, first compound 0.316 µM): 98.8%
- viability, T/C (second compound 10 µM, first compound 1 µM): 93.9%
- viability, T/C (second compound 10 µM, first compound 3.16 µM): 94.9%
- viability, T/C (second compound 10 µM, first compound 10 µM): 96%
- viability, T/C (second compound 31.6 µM, first compound 0.0316 µM): 98.5%
- viability, T/C (second compound 31.6 µM, first compound 0.1 µM): 102%
- viability, T/C (second compound 31.6 µM, first compound 0.316 µM): 108%
- viability, T/C (second compound 31.6 µM, first compound 1 µM): 110%
- viability, T/C (second compound 31.6 µM, first compound 3.16 µM): 104%
- viability, T/C (second compound 31.6 µM, first compound 10 µM): 94.7%
- viability, T/C (second compound 100 µM, first compound 0.0316 µM): 94.5%
- viability, T/C (second compound 100 µM, first compound 0.1 µM): 98.5%
- viability, T/C (second compound 100 µM, first compound 0.316 µM): 98.9%
- viability, T/C (second compound 100 µM, first compound 1 µM): 99%
- viability, T/C (second compound 100 µM, first compound 3.16 µM): 99.8%
- viability, T/C (second compound 100 µM, first compound 10 µM): 96%

Structure (SMILES): Cn1nnc2c(C(N)=O)ncn2c1=O
- viability, T/C (compound 1 µM): 95.3% [middle of 10 runs]
- viability, T/C (compound 3.16 µM): 101% [middle of 10 runs]
- viability, T/C (compound 10 µM): 104% [middle of 10 runs]
- viability, T/C (compound 31.6 µM): 107% [middle of 10 runs]
- IC50 (compound alone, run of 11/07/2019): > 100 µM

Structure (SMILES): Cn1ncnc1[C@H]1c2n[nH]c(=O)c3cc(F)cc(c23)N[C@@H]1c1ccc(F)cc1 + CC[C@@]1(O)C(=O)OCc2c1cc1n(c2=O)Cc2cc3c(CN(C)C)c(O)ccc3nc2-1
- IC50 (curve of first compound, second compound 0.003 µM): > 3 µM
- IC50 (curve of first compound, second compound 0.00949 µM): > 3 µM
- IC50 (curve of first compound, second compound 0.03 µM): > 3 µM
- IC50 (curve of first compound, second compound 0.0949 µM): > 3 µM
- IC50 (curve of first compound, second compound 0.3 µM): > 3 µM
- viability, T/C (second compound 0.003 µM, first compound 0.00949 µM): 97.6%
- viability, T/C (second compound 0.003 µM, first compound 0.03 µM): 90.2%
- viability, T/C (second compound 0.003 µM, first compound 0.0949 µM): 96.9%
- viability, T/C (second compound 0.003 µM, first compound 0.3 µM): 95.3%
- viability, T/C (second compound 0.003 µM, first compound 0.949 µM): 95%
- viability, T/C (second compound 0.003 µM, first compound 3 µM): 98.2%
- viability, T/C (second compound 0.00949 µM, first compound 0.00949 µM): 96.5%
- viability, T/C (second compound 0.00949 µM, first compound 0.03 µM): 87.7%
- viability, T/C (second compound 0.00949 µM, first compound 0.0949 µM): 95.5%
- viability, T/C (second compound 0.00949 µM, first compound 0.3 µM): 105%
- viability, T/C (second compound 0.00949 µM, first compound 0.949 µM): 104%
- viability, T/C (second compound 0.00949 µM, first compound 3 µM): 102%
- viability, T/C (second compound 0.03 µM, first compound 0.00949 µM): 104%
- viability, T/C (second compound 0.03 µM, first compound 0.03 µM): 110%
- viability, T/C (second compound 0.03 µM, first compound 0.0949 µM): 113%
- viability, T/C (second compound 0.03 µM, first compound 0.3 µM): 108%
- viability, T/C (second compound 0.03 µM, first compound 0.949 µM): 104%
- viability, T/C (second compound 0.03 µM, first compound 3 µM): 97.4%
- viability, T/C (second compound 0.0949 µM, first compound 0.00949 µM): 108%
- viability, T/C (second compound 0.0949 µM, first compound 0.03 µM): 108%
- viability, T/C (second compound 0.0949 µM, first compound 0.0949 µM): 105%
- viability, T/C (second compound 0.0949 µM, first compound 0.3 µM): 110%
- viability, T/C (second compound 0.0949 µM, first compound 0.949 µM): 106%
- viability, T/C (second compound 0.0949 µM, first compound 3 µM): 96.8%
- viability, T/C (second compound 0.3 µM, first compound 0.00949 µM): 99.1%
- viability, T/C (second compound 0.3 µM, first compound 0.03 µM): 99.9%
- viability, T/C (second compound 0.3 µM, first compound 0.0949 µM): 91%
- viability, T/C (second compound 0.3 µM, first compound 0.3 µM): 95.3%
- viability, T/C (second compound 0.3 µM, first compound 0.949 µM): 91.2%
- viability, T/C (second compound 0.3 µM, first compound 3 µM): 82.5%

Structure (SMILES): COc1ccc([C@@H](O)c2cc(-c3ncnc4cc(N5CCOCC5)ccc34)c(F)cc2Cl)nn1
- viability, T/C (compound 0.0316 µM): 96.5% and 98.3% and 102%
- viability, T/C (compound 0.1 µM): 101% and 94.9% and 98.9%
- viability, T/C (compound 0.316 µM): 89.8% and 87.1% and 95.5%
- outcome (compound 1 µM): inactive
- viability, T/C (compound 1 µM): 78.1% and 80.4%
- viability, T/C (compound 3.16 µM): 65% and 69% and 75.8%
- viability, T/C (compound 10 µM): 49.7% and 56.2% and 59.8%
- IC50 (curve of compound): > 10 µM

Structure (SMILES): O=C(c1cc(Cc2n[nH]c(=O)c3ccccc23)ccc1F)N1CCN(C(=O)C2CC2)CC1
- viability, T/C (compound 0.0949 µM): 99.6% and 102% and 108%
- viability, T/C (compound 0.3 µM): 100% and 93.2% and 96%
- viability, T/C (compound 0.949 µM): 90.1% and 99.8% and 99.6%
- viability, T/C (compound 3 µM): 98.9% and 93.9% and 98.2%
- viability, T/C (compound 9.49 µM): 92.9% and 89.8% and 95.1%
- viability, T/C (compound 30 µM): 85.1% (2×) and 69.1%
- IC50 (curve of compound): > 30 µM

Structure (SMILES): COc1cc(C)[nH]c(=O)c1CN1CCc2c(Cl)cc(C(OC)C3COC3)c(Cl)c2C1=O (centres undefined)
- viability, T/C (compound 0.0316 µM): 93.9% and 96.1% and 106%
- viability, T/C (compound 0.1 µM): 101% (2×) and 102%
- viability, T/C (compound 0.316 µM): 92.7% and 96% and 91.1%
- viability, T/C (compound 1 µM): 101% and 94.2% and 103%
- viability, T/C (compound 3.16 µM): 97.1% and 89.7% and 101%
- viability, T/C (compound 10 µM): 94.5% and 97.7% and 100%
- IC50 (curve of compound): > 10 µM

Structure (SMILES): CNCc1ccc(-c2cc(-c3nc(-c4ccc(S(=O)(=O)C(C)C)cc4)cnc3N)on2)cc1
- viability, T/C (compound 0.00949 µM): 101% and 97.8% and 106%
- viability, T/C (compound 0.03 µM): 108% and 111% and 109%
- viability, T/C (compound 0.0949 µM): 98% and 119% and 105%
- viability, T/C (compound 0.3 µM): 106% and 107% and 101%
- viability, T/C (compound 0.949 µM): 95% and 98.1% and 96.3%
- viability, T/C (compound 3 µM): 88.5% and 83.7% and 94%
- IC50 (curve of compound): > 3 µM
